# Source: patent publication US20250115595A1, “INHIBITORS OF HYPOXIA-INDUCIBLE FACTORS” (The Johns Hopkins University, priority 2021, published 2025)
# Tested on: cytokine mRNAs
# Experiment: RT-qPCR array of mouse cytokines and chemokines in Hepa1-6 tumors
# Type: in vivo
# Conditions: Hepa1-6 tumors, vs vehicle
# Description: Total RNA from Hepa1-6 tumors was analyzed using the RT2 Profiler PCR Array of Mouse Cytokines and Chemokines (Qiagen, catalog number 330231 PAMM-150ZA) according to the manufacturer's instructions.
smiles,measurement,value
"Brc1ccc2c(-c3csc(-c4c[nH]c5c(Br)cccc45)n3)c[nH]c2c1 [Compound 32-134D, 4-(6-bromo-1H-indol-3-yl)-2-(7-bromo-1H-indol-3-yl)thiazole]",Adipoq mRNA Fold Change Test Group/Control Group,0.43
same,Adipoq mRNA Fold Up- or Down-Regulation Test Group/Control Group,−2.31
same,Adipoq mRNA X axis (Log2(fold change)),−1.21
same,Bmp2 mRNA Fold Change Test Group/Control Group,0.51
same,Bmp2 mRNA Fold Up- or Down-Regulation Test Group/Control Group,−1.95
same,Bmp2 mRNA X axis (Log2(fold change)),−0.96
same,Bmp4 mRNA Fold Change Test Group/Control Group,0.64
same,Bmp4 mRNA Fold Up- or Down-Regulation Test Group/Control Group,−1.96
same,Bmp4 mRNA X axis (Log2(fold change)),−0.64
same,Bmp6 mRNA Fold Change Test Group/Control Group,0.44
same,Bmp6 mRNA Fold Up- or Down-Regulation Test Group/Control Group,−2.27
same,Bmp6 mRNA X axis (Log2(fold change)),−1.18
same,Bmp7 mRNA Fold Change Test Group/Control Group,0.70
same,Bmp7 mRNA Fold Up- or Down-Regulation Test Group/Control Group,−1.43
same,Bmp7 mRNA X axis (Log2(fold change)),−0.51
same,Cc15 mRNA Fold Change Test Group/Control Group,0.92
same,Cc15 mRNA Fold Up- or Down-Regulation Test Group/Control Group,−1.09
same,Cc15 mRNA X axis (Log2(fold change)),−0.13
same,Cc120 mRNA Fold Change Test Group/Control Group,0.42
same,Cc120 mRNA Fold Up- or Down-Regulation Test Group/Control Group,−2.41
same,Cc120 mRNA X axis (Log2(fold change)),−1.27
same,Ccl1 mRNA Fold Change Test Group/Control Group,0.63
same,Ccl1 mRNA Fold Up- or Down-Regulation Test Group/Control Group,−1.58
same,Ccl1 mRNA X axis (Log2(fold change)),−0.66
same,Ccl2 mRNA Fold Change Test Group/Control Group,1.35
same,Ccl2 mRNA Fold Up- or Down-Regulation Test Group/Control Group,1.35
same,Ccl2 mRNA X axis (Log2(fold change)),0.44
same,Ccl3 mRNA Fold Change Test Group/Control Group,1.06
same,Ccl3 mRNA Fold Up- or Down-Regulation Test Group/Control Group,1.06
same,Ccl3 mRNA X axis (Log2(fold change)),0.09
same,Ccl4 mRNA Fold Change Test Group/Control Group,0.72
same,Ccl4 mRNA Fold Up- or Down-Regulation Test Group/Control Group,−1.39
same,Ccl4 mRNA X axis (Log2(fold change)),−0.47
same,Ccl7 mRNA Fold Change Test Group/Control Group,1.03
same,Ccl7 mRNA Fold Up- or Down-Regulation Test Group/Control Group,1.03
same,Ccl7 mRNA X axis (Log2(fold change)),0.04
same,Ccl11 mRNA Fold Change Test Group/Control Group,1.03
same,Ccl11 mRNA Fold Up- or Down-Regulation Test Group/Control Group,1.03
same,Ccl11 mRNA X axis (Log2(fold change)),0.04
same,Ccl12 mRNA Fold Change Test Group/Control Group,4.11
same,Ccl12 mRNA Fold Up- or Down-Regulation Test Group/Control Group,4.11
same,Ccl12 mRNA X axis (Log2(fold change)),2.04
same,Ccl17 mRNA Fold Change Test Group/Control Group,0.68
same,Ccl17 mRNA Fold Up- or Down-Regulation Test Group/Control Group,−1.47
same,Ccl17 mRNA X axis (Log2(fold change)),−0.56
same,Ccl19 mRNA Fold Change Test Group/Control Group,0.54
same,Ccl19 mRNA Fold Up- or Down-Regulation Test Group/Control Group,−1.86
same,Ccl19 mRNA X axis (Log2(fold change)),−0.89
same,Ccl22 mRNA Fold Change Test Group/Control Group,0.31
same,Ccl22 mRNA Fold Up- or Down-Regulation Test Group/Control Group,−3.18
same,Ccl22 mRNA X axis (Log2(fold change)),−1.67
same,Ccl24 mRNA Fold Change Test Group/Control Group,1.21
same,Ccl24 mRNA Fold Up- or Down-Regulation Test Group/Control Group,1.21
same,Ccl24 mRNA X axis (Log2(fold change)),0.27
same,Cd40lg mRNA Fold Change Test Group/Control Group,0.52
same,Cd40lg mRNA Fold Up- or Down-Regulation Test Group/Control Group,−1.91
same,Cd40lg mRNA X axis (Log2(fold change)),−0.93
same,Cd70 mRNA Fold Change Test Group/Control Group,0.24
same,Cd70 mRNA Fold Up- or Down-Regulation Test Group/Control Group,−4.19
same,Cd70 mRNA X axis (Log2(fold change)),−2.07
same,Cntf mRNA Fold Change Test Group/Control Group,0.38
same,Cntf mRNA Fold Up- or Down-Regulation Test Group/Control Group,−2.61
same,Cntf mRNA X axis (Log2(fold change)),−1.39
same,Csf1 mRNA Fold Change Test Group/Control Group,1.02
same,Csf1 mRNA Fold Up- or Down-Regulation Test Group/Control Group,1.02
same,Csf1 mRNA X axis (Log2(fold change)),0.03
same,Csf2 mRNA Fold Change Test Group/Control Group,0.38
same,Csf2 mRNA Fold Up- or Down-Regulation Test Group/Control Group,−2.64
same,Csf2 mRNA X axis (Log2(fold change)),−1.40
same,Csf3 mRNA Fold Change Test Group/Control Group,0.50
same,Csf3 mRNA Fold Up- or Down-Regulation Test Group/Control Group,−1.99
same,Csf3 mRNA X axis (Log2(fold change)),−0.99
same,Ctf1 mRNA Fold Change Test Group/Control Group,0.19
same,Ctf1 mRNA Fold Up- or Down-Regulation Test Group/Control Group,−5.18
same,Ctf1 mRNA X axis (Log2(fold change)),−2.37
same,Cx3cl1 mRNA Fold Change Test Group/Control Group,0.53
same,Cx3cl1 mRNA Fold Up- or Down-Regulation Test Group/Control Group,−1.89
same,Cx3cl1 mRNA X axis (Log2(fold change)),−0.92
same,Cxcl1 mRNA Fold Change Test Group/Control Group,0.67
same,Cxcl1 mRNA Fold Up- or Down-Regulation Test Group/Control Group,1.49
same,Cxcl1 mRNA X axis (Log2(fold change)),−0.57
same,Cxcl3 mRNA Fold Change Test Group/Control Group,0.87
same,Cxcl3 mRNA Fold Up- or Down-Regulation Test Group/Control Group,−1.14
same,Cxcl3 mRNA X axis (Log2(fold change)),−0.19
same,Cxcl5 mRNA Fold Change Test Group/Control Group,1.05
same,Cxcl5 mRNA Fold Up- or Down-Regulation Test Group/Control Group,1.05
same,Cxcl5 mRNA X axis (Log2(fold change)),0.07
same,Cxcl9 mRNA Fold Change Test Group/Control Group,1.64
same,Cxcl9 mRNA Fold Up- or Down-Regulation Test Group/Control Group,1.64
same,Cxcl9 mRNA X axis (Log2(fold change)),0.71
same,Cxcl10 mRNA Fold Change Test Group/Control Group,1.44
same,Cxcl10 mRNA Fold Up- or Down-Regulation Test Group/Control Group,1.44
same,Cxcl10 mRNA X axis (Log2(fold change)),0.53
same,Cxcl11 mRNA Fold Change Test Group/Control Group,0.45
same,Cxcl11 mRNA Fold Up- or Down-Regulation Test Group/Control Group,−2.24
same,Cxcl11 mRNA X axis (Log2(fold change)),−1.16
same,Cxcl12 mRNA Fold Change Test Group/Control Group,2.26
same,Cxcl12 mRNA Fold Up- or Down-Regulation Test Group/Control Group,2.26
same,Cxcl12 mRNA X axis (Log2(fold change)),1.17
same,Cxcl13 mRNA Fold Change Test Group/Control Group,0.39
same,Cxcl13 mRNA Fold Up- or Down-Regulation Test Group/Control Group,−2.57
same,Cxcl13 mRNA X axis (Log2(fold change)),−1.36
same,Cxcl16 mRNA Fold Change Test Group/Control Group,0.61
same,Cxcl16 mRNA Fold Up- or Down-Regulation Test Group/Control Group,−1.65
same,Cxcl16 mRNA X axis (Log2(fold change)),−0.72
same,Fasl mRNA Fold Change Test Group/Control Group,0.59
same,Fasl mRNA Fold Up- or Down-Regulation Test Group/Control Group,−1.70
same,Fasl mRNA X axis (Log2(fold change)),−0.77
same,Gpi1 mRNA Fold Change Test Group/Control Group,0.64
same,Gpi1 mRNA Fold Up- or Down-Regulation Test Group/Control Group,−1.57
same,Gpi1 mRNA X axis (Log2(fold change)),−0.65
same,Hc mRNA Fold Change Test Group/Control Group,1.77
same,Hc mRNA Fold Up- or Down-Regulation Test Group/Control Group,1.77
same,Hc mRNA X axis (Log2(fold change)),0.82
same,Lif mRNA Fold Change Test Group/Control Group,0.40
same,Lif mRNA Fold Up- or Down-Regulation Test Group/Control Group,−2.48
same,Lif mRNA X axis (Log2(fold change)),−1.31
same,Lta mRNA Fold Change Test Group/Control Group,0.34
same,Lta mRNA Fold Up- or Down-Regulation Test Group/Control Group,−2.96
same,Lta mRNA X axis (Log2(fold change)),−1.57
same,Ltb mRNA Fold Change Test Group/Control Group,0.63
same,Ltb mRNA Fold Up- or Down-Regulation Test Group/Control Group,−1.58
same,Ltb mRNA X axis (Log2(fold change)),−0.66
same,Mif mRNA Fold Change Test Group/Control Group,1.12
same,Mif mRNA Fold Up- or Down-Regulation Test Group/Control Group,1.12
same,Mif mRNA X axis (Log2(fold change)),0.17
same,Mstn mRNA Fold Change Test Group/Control Group,0.21
